Results as given in patent US20250179057A1, “MEK IMMUNE ONCOLOGY INHIBITORS AND THERAPEUTIC USES THEREOF” (Immuneering Corporation, priority 2022, published 2025).

What was measured:
[1] = target: hERG (Homo sapiens, UniProt Q12809); test: in vitro; conditions: read-out: IC50 (μM), hERG ion channel block; Example 46; 5 min exposure per concentration
Procedure: Materials and Methods: CHO cells (transformed with adenovirus 5 DNA; Stably transfected with full length hERG cDNA) were cultured in Ham's F-12 supplemented with 10% fetal bovine serum, 100 U/mL penicillin G sodium, 100 μg/mL streptomycin sulfate and 400 μg/mL Zeocin. Before testing, cells in culture dishes were rinsed with Hank's Balanced Salt Solution, detached with accutase.
HEPES-buffered intracellular solution (Charles River proprietary) for whole cell recordings was loaded into the intracellular compartment of the SP384PE. Extracellular buffer (HB-PS) and Cell suspension (in HB-PS) were pipetted into the extracellular compartment of the SP384PE chip. After establishment of a whole-cell configuration, membrane currents were recorded using patch clamp amplifier in the SP384PE system.
Test article (TA) concentrations (eight (8) concentrations of each test article were evaluated) were applied to naïve cells (n=4, where n=replicates/concentration). Each application consisted of addition of 40 μL of 2× concentrated test article solution to the total 80 μL of final volume of the extracellular well of the SP384PE chip. Duration of exposure to each compound concentration was five (5) minutes.
hERG current was measured using stimulus voltage patterns with fixed amplitudes: activation pre-pulse (TP1) to +40 mV for 2 s and test pulse (TP2) to −40 mV for 2 s from a holding potential of −80 mV. hERG current was measured as the outward peak current at TP2 (tail current). The stimulation was repeated with 0.1 Hz frequency during 2 min as baseline and 5 min after TA application.
Data acquisition and analyses were performed using the SP384PE system operation software. The decrease in current amplitude after TA application was used to calculate the percent block relative to control.
Tonic Block effect was calculated as:
[formula] • where ITP2, baseline and ITP2, TA were the outward peak K^+ currents elicited by the TP2 before application and 5 min after application of a test article, respectively.
The data were corrected for run-down:
[formula] • where % VC and % PC were the mean values of the current block with the vehicle and positive controls, respectively.
Concentration-response data were fitted to an equation of the following form:
[formula] • where [Test] was the concentration of test article, IC50 was the concentration of the test article producing half-maximal block, N was the Hill coefficient, % VC was the mean current block at the vehicle control and % Block was the percentage of ion channel current inhibited at each concentration of a test article. Nonlinear least squares fits were solved with the XLfit add-in for Excel (Microsoft, Redmond, WA).
In this study, hERG Ion channel block of IC50 values were determined. […] In brief, CHO cells were cultured in Ham's F-12 supplemented with 10% fetal bovine serum, 100 U/mL penicillin G sodium, 100 μg/mL streptomycin sulfate and 400 μg/mL Zeocin. Before testing, cells in culture dishes were rinsed with Hank's Balanced Salt Solution, detached with accutase. […] Test article (TA) concentrations were applied to naïve cells (n=4, where n=replicates/concentration). Each application consisted of addition of 40 μL of 2× concentrated test article solution to the total 80 μL of final volume of the extracellular well of the SP384PE chip. Duration of exposure to each compound concentration was five (5) minutes. hERG current was measured using stimulus voltage patterns with fixed amplitudes: activation pre-pulse (TP1) to +40 mV for 2 s and test pulse (TP2) to −40 mV for 2 s from a holding potential of −80 mV. hERG current was measured as the outward peak current at TP2 (tail current). The stimulation was repeated with 0.1 Hz frequency during 2 min as baseline and 5 min after TA application. Data acquisition and analyses were performed using the SP384PE system operation software.

[2] = target: T1, CYP1A2 (Homo sapiens, UniProt P05177); test: CYP450 panel inhibition in human liver microsomes, 1A2 (phenacetin); conditions: human liver microsomes, 10 μM, substrate phenacetin
T1 sequence (P05177 1-516): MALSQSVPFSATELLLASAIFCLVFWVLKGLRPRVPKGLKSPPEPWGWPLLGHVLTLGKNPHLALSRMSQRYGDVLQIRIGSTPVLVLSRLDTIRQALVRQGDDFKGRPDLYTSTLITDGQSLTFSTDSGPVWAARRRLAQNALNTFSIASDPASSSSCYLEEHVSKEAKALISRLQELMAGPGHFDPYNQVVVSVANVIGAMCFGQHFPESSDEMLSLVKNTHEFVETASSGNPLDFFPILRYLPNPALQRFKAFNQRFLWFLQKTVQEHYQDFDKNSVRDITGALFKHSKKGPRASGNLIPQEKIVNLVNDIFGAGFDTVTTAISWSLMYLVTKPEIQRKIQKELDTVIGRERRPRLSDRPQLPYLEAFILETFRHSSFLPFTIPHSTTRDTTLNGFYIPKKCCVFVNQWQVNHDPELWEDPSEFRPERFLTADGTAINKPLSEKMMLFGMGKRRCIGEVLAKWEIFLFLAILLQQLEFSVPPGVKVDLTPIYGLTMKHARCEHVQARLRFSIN

[3] = target: CYP2C19 (Homo sapiens, UniProt P33261); test: CYP450 panel inhibition in human liver microsomes, 2C19 (mephenytoin); conditions: 10 μM, substrate mephenytoin
CYP2C19, sequence (P33261 whole entry): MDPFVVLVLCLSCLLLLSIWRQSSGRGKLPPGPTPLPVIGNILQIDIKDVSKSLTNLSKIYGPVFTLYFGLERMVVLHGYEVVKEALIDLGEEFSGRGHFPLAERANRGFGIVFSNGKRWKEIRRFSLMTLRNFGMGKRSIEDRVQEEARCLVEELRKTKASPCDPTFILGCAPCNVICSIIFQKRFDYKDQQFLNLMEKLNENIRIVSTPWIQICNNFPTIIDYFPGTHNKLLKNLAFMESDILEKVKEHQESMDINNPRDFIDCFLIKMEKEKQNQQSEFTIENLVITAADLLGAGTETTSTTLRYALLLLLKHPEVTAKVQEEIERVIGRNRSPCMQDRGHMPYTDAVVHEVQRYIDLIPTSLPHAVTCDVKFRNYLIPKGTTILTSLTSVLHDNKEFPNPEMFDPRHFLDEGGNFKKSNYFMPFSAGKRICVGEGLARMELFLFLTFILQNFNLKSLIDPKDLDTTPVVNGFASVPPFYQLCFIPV

[4] = Mouse pharmacokinetics (oral cassette dosing), plasma; type: in vivo; conditions: BALB/c immunocompetent mice, 5 mg/kg p.o.
Procedure: Female mice (BALC/c) received a single dose (3 mice/treatment) of vehicle (10% 1N HCl:90% [20% […]) and at 0.5, 1, 2, 4, 8, 12 and 24-hour post dose humanely euthanized.
Blood was obtained through cardiac puncture into K+EDTA tubes, mixed by inversion and centrifuged to obtain the plasma. Blood will be kept on ice or at approximately 4° C. prior. Centrifugation will take place within 30 minutes of blood collection affording plasma samples. Plasma samples will be frozen as soon as possible after centrifugation and stored at −80° C. until analysis. All samples will be analysed by means of LC-MS/MS. Method development for bioanalysis will be performed by pharmacokinetics Department of Crown Bioscience (Taicang) Inc. using LC-MS/MS analysis (using Waters HSS T3 2.1×50 mm (1.8 um) LC column, and an API-4000 Electrospray MS unit). The results of a kinetic solubility (free base) study are represented in Table 19.

hERG, sequence (Q12809 whole entry): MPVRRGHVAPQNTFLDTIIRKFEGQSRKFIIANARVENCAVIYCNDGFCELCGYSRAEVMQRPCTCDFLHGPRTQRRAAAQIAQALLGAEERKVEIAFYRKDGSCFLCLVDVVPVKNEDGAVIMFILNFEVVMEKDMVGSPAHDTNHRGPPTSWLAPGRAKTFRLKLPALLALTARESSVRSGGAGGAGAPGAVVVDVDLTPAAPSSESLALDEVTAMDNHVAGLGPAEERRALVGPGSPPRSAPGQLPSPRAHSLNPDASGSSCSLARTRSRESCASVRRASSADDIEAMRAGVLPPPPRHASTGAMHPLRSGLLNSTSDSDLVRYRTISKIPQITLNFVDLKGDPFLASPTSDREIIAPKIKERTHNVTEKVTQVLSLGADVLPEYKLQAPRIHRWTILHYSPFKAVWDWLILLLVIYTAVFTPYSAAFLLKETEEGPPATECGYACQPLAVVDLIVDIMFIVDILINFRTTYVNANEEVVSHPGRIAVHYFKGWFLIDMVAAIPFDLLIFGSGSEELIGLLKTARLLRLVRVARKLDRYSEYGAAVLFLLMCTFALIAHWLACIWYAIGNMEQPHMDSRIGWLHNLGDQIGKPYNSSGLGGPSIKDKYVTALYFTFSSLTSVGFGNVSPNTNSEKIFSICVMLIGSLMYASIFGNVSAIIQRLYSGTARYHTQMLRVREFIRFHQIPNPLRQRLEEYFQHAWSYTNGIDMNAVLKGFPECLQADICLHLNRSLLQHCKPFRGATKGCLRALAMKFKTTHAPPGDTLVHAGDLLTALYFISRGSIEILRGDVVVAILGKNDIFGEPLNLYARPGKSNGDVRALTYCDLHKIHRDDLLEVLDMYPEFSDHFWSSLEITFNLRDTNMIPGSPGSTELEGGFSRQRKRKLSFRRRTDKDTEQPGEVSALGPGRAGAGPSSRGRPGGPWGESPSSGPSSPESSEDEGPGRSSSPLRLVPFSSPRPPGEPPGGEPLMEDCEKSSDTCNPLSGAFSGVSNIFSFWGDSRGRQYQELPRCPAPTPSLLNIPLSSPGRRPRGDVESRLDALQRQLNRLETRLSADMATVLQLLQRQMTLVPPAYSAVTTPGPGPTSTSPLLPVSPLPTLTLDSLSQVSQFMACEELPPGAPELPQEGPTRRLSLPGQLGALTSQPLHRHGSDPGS

SMILES | IC50 [1] | CYP-1A2 (Phenacetin) mean percentage CYP inhibition [2] | CYP-2C19 (Mephenytoin) mean percentage CYP inhibition [3] | AUC0-∞ [4] | AUC(0-t) [4] | Cmax [4] | T1/2 [4] | Tmax [4]
CCCS(=O)(=O)Nc1cccc(Cc2c(CN3CCNCC3)c3cc(Cl)c(OC(=O)N(C)C)cc3oc2=O)c1F [Compound 167] | 1.5 µM | 10.8% | 67.1% |  |  |  |  | 
CNS(=O)(=O)Nc1nccc(Cc2c(CN(C)C)c3ccc(OC(=O)N(C)C)cc3oc2=O)c1F [Compound 124] | 4.2 µM | 9.9% | 50.6% |  |  |  |  | 
CNS(=O)(=O)Nc1cccc(Cc2c(CN(C)C)c3cc(F)c(OC(=O)N(C)C)cc3oc2=O)c1F [Compound 25] |  | 7.9% | 26.5% | 1426 ng·h/mL | 1336 ng·h/mL | 1037 ng/mL | 66 min | 4.98 min
CNS(=O)(=O)Nc1cccc(Cc2c(CN(C)C)c3ccc(OC(=O)N(C)C)cc3oc2=O)c1F [Compound 9] | 22.4 µM | 2.8% | 17.4% | 445 ng·h/mL | 441 ng·h/mL | 725 ng/mL | 66 min | 4.98 min
CCS(=O)(=O)Nc1cccc(Cc2c(CN(C)C)c3ccc(OC(=O)N(C)C)cc3oc2=O)c1F [Compound 120] |  | −3.7% | 14.2% | 673.2 ng·h/mL | 669.3 ng·h/mL | 1422.7 ng/mL | 18 min | 4.98 min
